Experimental data published in patent US10662477B2, “Biomarkers and methods to predict response to inhibitors and uses thereof” (Millennium Pharmaceuticals, Inc., priority 2012, dated 2020).
Like-named read-outs stand apart in the source and are kept apart here.

How the values were obtained:
[1] = system: NSCLC patients; assay: BATTLE clinical trial Erlotinib arm, progression-free survival by Erlotinib PLSR model group; assay type: in vivo, human
[2] = system: NSCLC patients; assay: BATTLE clinical trial Sorafenib arm, progression-free survival by Sorafenib PLSR model group; assay type: in vivo, human
[3] = system: Kidney cancer; assay: Sorafenib phase III clinical trial on Kidney cancer; assay type: in vivo, human; conditions: Sorafenib vs. placebo
[4] = system: Kidney cancer; conditions: phase III clinical trial, cited from earlier work
[5] = system: human melanoma tumors; assay: Melanoma explants (human tumor xenografts) in mice treated with MLN4924, tumor growth; assay type: in vivo; conditions: subcutaneous treatment
[6] = system: tumor xenografts; assay: Xenograft models of MLN4924 treatment, average plasma concentration needed for tumor stasis, sensitivity rank; assay type: in vivo, rats or mice; conditions: for C avg at stasis: average plasma concentration needed to reach tumor stasis; for Sensitivity Rank: rank of 1 is most sensitive, 16 is least sensitive

With C#Cc1cccc(Nc2ncnc3cc(OCCOC)c(OCCOC)cc23)c1 [Erlotinib, N-(3-ethynylphenyl)-6,7-bis(2-methoxyethoxy) quinazolin-4-amine] the PFS ([1]; Erlotinib-resistant patients (Erlotinib PLSR signature), BATTLE Erlotinib arm) was 1.84 month, the “median PFS” value ([1]; Erlotinib-sensitive patient group (Erlotinib PLSR signature), BATTLE Erlotinib arm) was 3.84 month and the Hazard ratio ([1]; Erlotinib-sensitive vs Erlotinib-resistant patient group, PFS, p-value 0.09) was 0.43.
For CNC(=O)c1cc(Oc2ccc(NC(=O)Nc3ccc(Cl)c(C(F)(F)F)c3)cc2)ccn1 [Sorafenib], the “median PFS survival” value ([2]; marker-insensitive group (Sorafenib model), BATTLE Sorafenib arm) was 1.87 months, the “median PFS survival” value ([2]; marker-sensitive group (Sorafenib model), BATTLE Sorafenib arm) was 4.53 months and the PFS survival benefit ([2]; marker-sensitive group vs marker-resistant group, BATTLE Sorafenib arm) was 2.66 months. For the same compound, the Hazard-ratio ([2]; marker-sensitive vs marker-resistant group, PFS, p-value 0.006) was 0.32, the PFS benefit [3] was 2.77 month and the median survival ([4]; Sorafenib arm (placebo 84 days)) was 167 days. The median survival ([4]; Sorafenib arm, days converted to months (placebo 2.80)) was 5.57 months.
With NS(=O)(=O)OC[C@@H]1C[C@@H](n2ccc3c(N[C@H]4CCc5ccccc54)ncnc32)C[C@@H]1O [MLN4924, ((1S,2S,4R)-4-{4-[(1S)-2,3-dihydro-1H-inden-1-ylamino]-7H-pyrrolo[2,3-d]pyrimidin-7-yl}-2-hydroxycyclopentyl)methyl sulphamate] the “Experimental Result with MLN4924 treatment” value (“Experimental Result” below) ([5]; melanoma explant 1, tumor growth in mice) was “Sensitive”, the “Experimental Result” value ([5]; melanoma explant 2, tumor growth in mice) was “Sensitive” and the “Experimental Result” value ([5]; melanoma explant 3, tumor growth in mice) was “Sensitive”. For the same compound, the “Experimental Result” value ([5]; melanoma explant 4, tumor growth in mice) was “Resistant”, the “Experimental Result” value ([5]; melanoma explant 5, tumor growth in mice) was “Resistant” and the “Experimental Result” value ([5]; melanoma explant 6, tumor growth in mice) was “Resistant”. The “Experimental Result” value ([5]; melanoma explant 7, tumor growth in mice) was “Resistant”, the “Experimental Result” value ([5]; melanoma explant 8, tumor growth in mice) was “Resistant” and the “Experimental Result” value ([5]; melanoma explant 9, tumor growth in mice) was “Resistant”. For the same compound, the “Experimental Result” value ([5]; melanoma explant 10, tumor growth in mice) was “Resistant”, the “C avg at stasis” value ([6]; A375 xenograft, melanoma) was 6.837 µg/mL and the “Sensitivity Rank” value ([6]; A375 xenograft) was 7. The “C avg at stasis” value ([6]; DLD-1 xenograft, colon adenocarcinoma) was 17.476 µg/mL, the “Sensitivity Rank” value ([6]; DLD-1 xenograft) was 16 and the “C avg at stasis” value ([6]; DU-145 xenograft, prostate cancer) was 9.365 µg/mL. The “Sensitivity Rank” value ([6]; DU-145 xenograft) was 11, the “C avg at stasis” value ([6]; HCT116 (grown in mouse) xenograft, colorectal carcinoma) was 1.983 µg/mL and the “Sensitivity Rank” value ([6]; HCT116 (grown in mouse) xenograft) was 2. The “C avg at stasis” value ([6]; HCT116 (grown in rat) xenograft, colorectal carcinoma) was 1.490 µg/mL, the “Sensitivity Rank” value ([6]; HCT116 (grown in rat) xenograft) was 1 and the “C avg at stasis” value ([6]; HL-60 xenograft, promyelocytic leukemia) was 2.023 µg/mL. The “Sensitivity Rank” value ([6]; HL-60 xenograft) was 3, the “C avg at stasis” value ([6]; HT29 xenograft, colon adenocarcinoma) was 7.171 µg/mL and the “Sensitivity Rank” value ([6]; HT29 xenograft) was 9. The “C avg at stasis” value ([6]; NCI-H69 xenograft, small cell lung cancer) was 6.868 µg/mL, the “Sensitivity Rank” value ([6]; NCI-H69 xenograft) was 8 and the “C avg at stasis” value ([6]; NCI-H82 xenograft, small cell lung cancer) was 5.316 µg/mL. The “Sensitivity Rank” value ([6]; NCI-H82 xenograft) was 5, the “C avg at stasis” value ([6]; NCI-H322M xenograft, non-small cell lung carcinoma) was 14.722 µg/mL and the “Sensitivity Rank” value ([6]; NCI-H322M xenograft) was 14. The “C avg at stasis” value ([6]; NCI-H460 xenograft, non-small cell lung carcinoma) was 17.070 µg/mL, the “Sensitivity Rank” value ([6]; NCI-H460 xenograft) was 15 and the “C avg at stasis” value ([6]; PC3 xenograft, prostate cancer) was 5.968 µg/mL. The “Sensitivity Rank” value ([6]; PC3 xenograft) was 6, the “C avg at stasis” value ([6]; PHTX-02B xenograft, Breast cancer) was 3.691 µg/mL and the “Sensitivity Rank” value ([6]; PHTX-02B xenograft) was 4. For the same compound, the “C avg at stasis” value ([6]; PHTX-50M xenograft, melanoma) was 8.501 µg/mL, the “Sensitivity Rank” value ([6]; PHTX-50M xenograft) was 10 and the “C avg at stasis” value ([6]; PHTX-51M xenograft, melanoma) was 11.588 µg/mL. The “Sensitivity Rank” value ([6]; PHTX-51M xenograft) was 13, the “C avg at stasis” value ([6]; SKOV3 xenograft, ovarian carcinoma) was 9.890 µg/mL and the “Sensitivity Rank” value ([6]; SKOV3 xenograft) was 12.
